From ChEMBL document CHEMBL6074659, “Development of an Intravenously Stable Disulfide-Rich Peptide for the Treatment of Chemotherapy-Induced Neuropathic Pain” (J Med Chem, 2024) come the findings set out here.

The nature of data set [1]: Stability in human serum assessed as parent compound remaining incubated at 24 hrs by RP-HPLC analysis. As to conditions: human serum, read-out: Stability. The class given is ADME, cell-free.
The target of data set [2] is Neuronal acetylcholine receptor; alpha9/alpha10 (Homo sapiens) (UniProt Q9UGM1+Q9GZZ6). Put plainly: Antagonist activity at human alpha9alpha10 nAChR expressed in acetylcholine-induced Xenopus laevis oocytes assessed as inhibition of acetylcholine-induced current at 10 nM at -80 mV holding potential incubated for 5 mins by two electrode voltage-clamp assay relative to control. It is filed as cell-based. The settings on record: Oocyte. For orientation: Two-electrode voltage clamp holds a large cell at a set potential and records current.

Starred links: 1 amine or outer side, 2 acyl side, 3 side chain; linkers in the order of their positions; H or OH if unused. Positions of bridges follow the written chain, without caps; N, C: chain ends. Non-standard residues stand in square brackets, D forms with d. Residues, ends and D or L forms follow the SMILES beside them. Triazole bridges read from a SMILES are 1,4-linked. Aha = [N-]=[N+]=NCC[C@H](N)C(=O)O; Pra = C#CC[C@H](N)C(=O)O; Dap = NC[C@H](N)C(=O)O; CH2 = C([*:1])[*:2]

For the compound `CC[C@H](C)[C@@H]1NC(=O)[C@H](CC(=O)O)NC(=O)[C@@H]2CCCN2C(=O)[C@H](CC(N)=O)NC(=O)[C@H](CC(N)=O)NC(=O)[C@H](C(C)C)NC(=O)[C@H](CO)NC(=O)[C@@H]2CSCSC[C@@H]3NC(=O)CNC(=O)[C@@H](N)CCC(=O)NC[C@@H](C(N)=O)NC(=O)[C@H](CSSC[C@H](NC3=O)C(=O)N[C@@H](CN)C(=O)N[C@@H](Cc3cnc[nH]3)C(=O)N3CCC[C@H]3C(=O)N[C@@H](C)C(=O)N2)NC1=O` (H-EGCC[Dap]HPACSVNNPDIC[Dap]-NH2; lactam 1-18; linker 3-9 via CH2; disulfide 4-17), the remaining at 24 h in data set [1] was 57.3%.

For `CC[C@H](C)[C@@H]1NC(=O)[C@H](CC(=O)O)NC(=O)[C@@H]2CCCN2C(=O)[C@H](CC(N)=O)NC(=O)[C@H](CC(N)=O)NC(=O)[C@H](C(C)C)NC(=O)[C@H](CO)NC(=O)[C@@H]2CSSC[C@H](NC(=O)CN)C(=O)N[C@@H](CCn3cc(nn3)C[C@@H](C(N)=O)NC1=O)C(=O)N[C@@H](CN)C(=O)N[C@@H](Cc1cnc[nH]1)C(=O)N1CCC[C@H]1C(=O)N[C@@H](C)C(=O)N2` (H-GC[Aha][Dap]HPACSVNNPDI[Pra]-NH2; disulfide 2-8; triazole 3-16), the inhibition in data set [2] was less than 15%. For `CC[C@H](C)[C@@H]1NC(=O)[C@H](CC(=O)O)NC(=O)[C@@H]2CCCN2C(=O)[C@H](CC(N)=O)NC(=O)[C@H](CC(N)=O)NC(=O)[C@H](C(C)C)NC(=O)[C@H](CO)NC(=O)[C@@H]2CSSC[C@H](NC(=O)CN)C(=O)N[C@@H](Cc3cn(nn3)CC[C@@H](C(N)=O)NC1=O)C(=O)N[C@@H](CN)C(=O)N[C@@H](Cc1cnc[nH]1)C(=O)N1CCC[C@H]1C(=O)N[C@@H](C)C(=O)N2` (H-GC[Pra][Dap]HPACSVNNPDI[Aha]-NH2; disulfide 2-8; triazole 3-16), in data set [2], the inhibition was less than 15%. For `CC[C@H](C)[C@@H]1NC(=O)[C@H](CC(=O)O)NC(=O)[C@@H]2CCCN2C(=O)[C@H](CC(N)=O)NC(=O)[C@H](CC(N)=O)NC(=O)[C@H](C(C)C)NC(=O)[C@H](CO)NC(=O)[C@@H]2CSSC[C@@H]3NC(=O)CNC(=O)CNC(=O)[C@H](C)NC(=O)CNC(=O)[C@H](C)NC(=O)[C@H](C)NC(=O)CNC(=O)CNC(=O)[C@H](CSSC[C@H](NC3=O)C(=O)N[C@@H](CN)C(=O)N[C@@H](Cc3cnc[nH]3)C(=O)N3CCC[C@H]3C(=O)N[C@@H](C)C(=O)N2)NC1=O` (HELM PEPTIDE1{A.A.G.A.G.G.C.C.[NC[C@H](N[*:1])C(=O)[*:2]].H.P.A.C.S.V.N.N.P.D.I.C.G.G}$PEPTIDE1,PEPTIDE1,7:R3-13:R3|PEPTIDE1,PEPTIDE1,8:R3-21:R3|PEPTIDE1,PEPTIDE1,1:R1-23:R2$$$V2.0), the remaining at 24 h in data set [1] came out at 61.7%. Moreover, the inhibition in data set [2] (filed as antagonist) was more than 85%. `CC[C@H](C)[C@@H]1NC(=O)[C@H](CC(=O)O)NC(=O)[C@@H]2CCCN2C(=O)[C@H](CC(N)=O)NC(=O)[C@H](CC(N)=O)NC(=O)[C@H](C(C)C)NC(=O)[C@H](CO)NC(=O)[C@@H]2CSSC[C@@H]3NC(=O)CNC(=O)CNC(=O)[C@H](C)NC(=O)[C@H](C)NC(=O)CNC(=O)CNC(=O)[C@H](CSSC[C@H](NC3=O)C(=O)N[C@@H](CN)C(=O)N[C@@H](Cc3cnc[nH]3)C(=O)N3CCC[C@H]3C(=O)N[C@@H](C)C(=O)N2)NC1=O` (HELM PEPTIDE1{A.A.G.G.C.C.[NC[C@H](N[*:1])C(=O)[*:2]].H.P.A.C.S.V.N.N.P.D.I.C.G.G}$PEPTIDE1,PEPTIDE1,5:R3-11:R3|PEPTIDE1,PEPTIDE1,6:R3-19:R3|PEPTIDE1,PEPTIDE1,1:R1-21:R2$$$V2.0): the remaining at 24 h in data set [1] was less than 40%. In data set [2], the inhibition came to 20%. For `CC[C@H](C)[C@@H]1NC(=O)[C@H](CC(=O)O)NC(=O)[C@@H]2CCCN2C(=O)[C@H](CC(N)=O)NC(=O)[C@H](CC(N)=O)NC(=O)[C@H](C(C)C)NC(=O)[C@H](CO)NC(=O)[C@@H]2CSSC[C@@H]3NC(=O)CNC(=O)CNC(=O)[C@H](C)NC(=O)[C@H](C)NC(=O)CNC(=O)[C@H](CSSC[C@H](NC3=O)C(=O)N[C@@H](CN)C(=O)N[C@@H](Cc3cnc[nH]3)C(=O)N3CCC[C@H]3C(=O)N[C@@H](C)C(=O)N2)NC1=O` (HELM PEPTIDE1{A.A.G.G.C.C.[NC[C@H](N[*:1])C(=O)[*:2]].H.P.A.C.S.V.N.N.P.D.I.C.G}$PEPTIDE1,PEPTIDE1,5:R3-11:R3|PEPTIDE1,PEPTIDE1,6:R3-19:R3|PEPTIDE1,PEPTIDE1,1:R1-20:R2$$$V2.0) the same measures were less than 40% and less than 10%.

On to `CC[C@H](C)[C@@H]1NC(=O)[C@H](CC(=O)O)NC(=O)[C@@H]2CCCN2C(=O)[C@H](CC(N)=O)NC(=O)[C@H](CC(N)=O)NC(=O)[C@H](C(C)C)NC(=O)[C@H](CO)NC(=O)[C@@H]2CSSC[C@@H]3NC(=O)CNC(=O)CNC(=O)CNC(=O)[C@H](C)NC(=O)[C@H](C)NC(=O)CNC(=O)CNC(=O)[C@H](CSSC[C@H](NC3=O)C(=O)N[C@@H](CN)C(=O)N[C@@H](Cc3cnc[nH]3)C(=O)N3CCC[C@H]3C(=O)N[C@@H](C)C(=O)N2)NC1=O` (HELM PEPTIDE1{A.A.G.G.G.C.C.[NC[C@H](N[*:1])C(=O)[*:2]].H.P.A.C.S.V.N.N.P.D.I.C.G.G}$PEPTIDE1,PEPTIDE1,6:R3-12:R3|PEPTIDE1,PEPTIDE1,7:R3-20:R3|PEPTIDE1,PEPTIDE1,1:R1-22:R2$$$V2.0), for which the remaining at 24 h in data set [1] stood at 43.3%. Moreover, the inhibition in data set [2] (filed as antagonist) was more than 85%. In the case of `CC[C@H](C)[C@@H]1NC(=O)[C@H](CC(=O)O)NC(=O)[C@@H]2CCCN2C(=O)[C@H](CC(N)=O)NC(=O)[C@H](CC(N)=O)NC(=O)[C@H](C(C)C)NC(=O)[C@H](CO)NC(=O)[C@@H]2CSCSC[C@@H]3NC(=O)CNC(=O)[C@@H](N)CCC(=O)NCC[C@@H](C(N)=O)NC(=O)[C@H](CSSC[C@H](NC3=O)C(=O)N[C@@H](CN)C(=O)N[C@@H](Cc3cnc[nH]3)C(=O)N3CCC[C@H]3C(=O)N[C@@H](C)C(=O)N2)NC1=O` (HELM PEPTIDE1{E.G.C.C.[NC[C@H](N[*:1])C(=O)[*:2]].H.P.A.C.S.V.N.N.P.D.I.C.[Dab].[am]}|CHEM1{[C([*:1])[*:2]]}$PEPTIDE1,PEPTIDE1,1:R3-18:R3|PEPTIDE1,CHEM1,3:R3-1:R1|PEPTIDE1,CHEM1,9:R3-1:R2|PEPTIDE1,PEPTIDE1,4:R3-17:R3$$$V2.0), the inhibition in data set [2] was less than 5%. Regarding `CC[C@H](C)[C@@H]1NC(=O)[C@H](CC(=O)O)NC(=O)[C@@H]2CCCN2C(=O)[C@H](CC(N)=O)NC(=O)[C@H](CC(N)=O)NC(=O)[C@H](C(C)C)NC(=O)[C@H](CO)NC(=O)[C@@H]2CSSC[C@H](NC(=O)CN)C(=O)N[C@@H](CCC(=O)NCC[C@@H](C(N)=O)NC1=O)C(=O)N[C@@H](CN)C(=O)N[C@@H](Cc1cnc[nH]1)C(=O)N1CCC[C@H]1C(=O)N[C@@H](C)C(=O)N2` (HELM PEPTIDE1{G.C.E.[NC[C@H](N[*:1])C(=O)[*:2]].H.P.A.C.S.V.N.N.P.D.I.[Dab].[am]}$PEPTIDE1,PEPTIDE1,2:R3-8:R3|PEPTIDE1,PEPTIDE1,3:R3-16:R3$$$V2.0), in data set [2], the inhibition is less than 5%. Regarding `CC[C@H](C)[C@@H]1NC(=O)[C@H](CC(=O)O)NC(=O)[C@@H]2CCCN2C(=O)[C@H](CC(N)=O)NC(=O)[C@H](CC(N)=O)NC(=O)[C@H](C(C)C)NC(=O)[C@H](CO)NC(=O)[C@@H]2CSSC[C@H](NC(=O)CN)C(=O)N[C@@H](CCC(=O)NC[C@@H](C(N)=O)NC1=O)C(=O)N[C@@H](CN)C(=O)N[C@@H](Cc1cnc[nH]1)C(=O)N1CCC[C@H]1C(=O)N[C@@H](C)C(=O)N2` (HELM PEPTIDE1{G.C.E.[NC[C@H](N[*:1])C(=O)[*:2]].H.P.A.C.S.V.N.N.P.D.I.[O=C([C@H](CN[*:3])N[*:1])[*:2]].[am]}$PEPTIDE1,PEPTIDE1,2:R3-8:R3|PEPTIDE1,PEPTIDE1,3:R3-16:R3$$$V2.0), the remaining at 24 h in data set [1] was 57.3%. `CC[C@H](C)[C@@H]1NC(=O)[C@H](CC(=O)O)NC(=O)[C@@H]2CCCN2C(=O)[C@H](CC(N)=O)NC(=O)[C@H](CC(N)=O)NC(=O)[C@H](C(C)C)NC(=O)[C@H](CO)NC(=O)[C@@H]2CSSC[C@H](NC(=O)CN)C(=O)N[C@@H](CCNC(=O)C[C@@H](C(N)=O)NC1=O)C(=O)N[C@@H](CN)C(=O)N[C@@H](Cc1cnc[nH]1)C(=O)N1CCC[C@H]1C(=O)N[C@@H](C)C(=O)N2` (HELM PEPTIDE1{G.C.[Dab].[NC[C@H](N[*:1])C(=O)[*:2]].H.P.A.C.S.V.N.N.P.D.I.D.[am]}$PEPTIDE1,PEPTIDE1,2:R3-8:R3|PEPTIDE1,PEPTIDE1,3:R3-16:R3$$$V2.0): in data set [2], the inhibition was less than 5%.

For the compound `CC[C@H](C)[C@@H]1NC(=O)[C@H](CC(=O)O)NC(=O)[C@@H]2CCCN2C(=O)[C@H](CC(N)=O)NC(=O)[C@H](CC(N)=O)NC(=O)[C@H](C(C)C)NC(=O)[C@H](CO)NC(=O)[C@@H]2CSSC[C@@H]3NC(=O)CNC(=O)[C@@H](N)CCNC(=O)C[C@@H](C(N)=O)NC(=O)[C@H](CSSC[C@H](NC3=O)C(=O)N[C@@H](CN)C(=O)N[C@@H](Cc3cnc[nH]3)C(=O)N3CCC[C@H]3C(=O)N[C@@H](C)C(=O)N2)NC1=O` (HELM PEPTIDE1{[Dab].G.C.C.[NC[C@H](N[*:1])C(=O)[*:2]].H.P.A.C.S.V.N.N.P.D.I.C.D.[am]}$PEPTIDE1,PEPTIDE1,1:R3-18:R3|PEPTIDE1,PEPTIDE1,3:R3-9:R3|PEPTIDE1,PEPTIDE1,4:R3-17:R3$$$V2.0), the inhibition in data set [2] is less than 5%. On to `CC[C@H](C)[C@@H]1NC(=O)[C@H](CC(=O)O)NC(=O)[C@@H]2CCCN2C(=O)[C@H](CC(N)=O)NC(=O)[C@H](CC(N)=O)NC(=O)[C@H](C(C)C)NC(=O)[C@H](CO)NC(=O)[C@@H]2CSSC[C@@H]3NC(=O)CNC(=O)[C@@H](N)CCNC(=O)CC[C@@H](C(N)=O)NC(=O)[C@H](CSSC[C@H](NC3=O)C(=O)N[C@@H](CN)C(=O)N[C@@H](Cc3cnc[nH]3)C(=O)N3CCC[C@H]3C(=O)N[C@@H](C)C(=O)N2)NC1=O` (HELM PEPTIDE1{[Dab].G.C.C.[NC[C@H](N[*:1])C(=O)[*:2]].H.P.A.C.S.V.N.N.P.D.I.C.E.[am]}$PEPTIDE1,PEPTIDE1,1:R3-18:R3|PEPTIDE1,PEPTIDE1,3:R3-9:R3|PEPTIDE1,PEPTIDE1,4:R3-17:R3$$$V2.0), for which the inhibition in data set [2] is less than 5%.

Broadly, the inhibition is the relative decrease from the control value, in per cent.
